In US12195482B1 (Arcus Biosciences, Inc., priority 2022, dated 2025) one finds IC50 data, which are given here for 17 molecules.

The structures appear in SMILES notation.

The assay addresses T1, recombinant human MER (Homo sapiens, UniProt Q12866).
T1 construct: purchased Invitrogen
T1 sequence (Q12866 21-999): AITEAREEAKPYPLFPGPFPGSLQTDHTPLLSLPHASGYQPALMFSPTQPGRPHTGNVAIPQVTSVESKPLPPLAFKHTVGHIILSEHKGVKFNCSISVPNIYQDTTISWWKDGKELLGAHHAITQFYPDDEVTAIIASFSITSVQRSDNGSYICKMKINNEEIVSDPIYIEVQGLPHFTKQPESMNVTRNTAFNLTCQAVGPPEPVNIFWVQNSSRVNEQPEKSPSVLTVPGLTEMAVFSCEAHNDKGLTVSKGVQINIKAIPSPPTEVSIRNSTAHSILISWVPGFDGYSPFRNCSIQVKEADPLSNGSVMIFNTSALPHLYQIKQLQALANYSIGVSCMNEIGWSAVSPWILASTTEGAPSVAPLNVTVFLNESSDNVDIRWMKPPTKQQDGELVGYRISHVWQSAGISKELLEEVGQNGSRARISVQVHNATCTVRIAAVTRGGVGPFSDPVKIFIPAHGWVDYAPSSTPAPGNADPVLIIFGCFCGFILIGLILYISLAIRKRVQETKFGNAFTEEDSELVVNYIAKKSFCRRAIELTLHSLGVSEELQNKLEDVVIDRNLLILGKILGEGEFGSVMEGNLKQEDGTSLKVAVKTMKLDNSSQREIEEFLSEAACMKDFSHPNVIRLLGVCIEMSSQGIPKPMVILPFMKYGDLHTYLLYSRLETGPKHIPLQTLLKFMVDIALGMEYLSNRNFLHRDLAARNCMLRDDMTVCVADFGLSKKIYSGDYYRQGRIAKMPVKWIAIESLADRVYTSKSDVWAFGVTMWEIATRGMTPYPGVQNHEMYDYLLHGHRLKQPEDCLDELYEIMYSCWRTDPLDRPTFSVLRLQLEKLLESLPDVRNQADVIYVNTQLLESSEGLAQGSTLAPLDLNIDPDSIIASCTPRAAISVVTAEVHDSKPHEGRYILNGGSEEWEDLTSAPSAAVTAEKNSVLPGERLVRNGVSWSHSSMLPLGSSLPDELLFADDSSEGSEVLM
The assay is described as follows: Biochemical potency, HTRF KinEASE-TK kinase assay. Conditions: 1 nM MER, 700 μM ATP. In a few lines:
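Enzyme (AXL 5 nM; TYRO3 or MER 1 nM final) was preincubated with compound for 1 h at RT, then reacted for 2 h at RT with 800 nM biotinylated TK substrate and 700 µM ATP in HEPES pH 7.4, MgCl2, DTT, BSA, 1% DMSO. Percent activity came from the HTRF 665/620 ratio.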
By IC50 is commonly meant the concentration that gives 50% inhibition. Take `Cc1ccc(-c2ccc(-c3n[nH]c4ncc(-c5ccc6c(c5)CC[C@@H](N5C7COCC5C7)CC6)cc34)cc2)nc1` [Example 115, 6-[(7S)-2-{3-[4-(5-Methylpyridin-2-yl)phenyl]-1H-pyrazolo[3,4-b]pyridin-5-yl}-6,7,8,9-tetrahydro-5H-benzo[7]annulen-7-yl]-3-oxa-6-azabicyclo[3.1.1]heptane]: the IC50 was in the range of 100 to 1000 nM.
Regarding `Cc1cccnc1-c1ccc(-c2c[nH]c3ncc(-c4ccc5c(c4)CC[C@@](C)(N4CCC[C@H]4C)CC5)cc23)cc1` [Example 172, 3-Methyl-2-(4-{5-[(7S)-7-methyl-7-[(2R)-2-methylpyrrolidin-1-yl]-6,7,8,9-tetrahydro-5H-benzo[7]annulen-2-yl]-1H-pyrrolo[2,3-b]pyridin-3-yl}phenyl)pyridine], the IC50 is under 100 nM.
Under `Cn1nccc1-c1ccc(-c2n[nH]c3ncc(-c4ccc5c(c4)CC[C@@H](N4C6COCC4C6)CC5)cc23)cc1` [Example 109, 6-[(7S)-2-{3-[4-(1-Methyl-1H-pyrazol-5-yl)phenyl]-1H-pyrazolo[3,4-b]pyridin-5-yl}-6,7,8,9-tetrahydro-5H-benzo[7]annulen-7-yl]-3-oxa-6-azabicyclo[3.1.1]heptane] stands 100 to 1000 nM; under `CC(C)(C#N)c1cccnc1-c1ccc(-c2c[nH]c3ncc(-c4ccc5c(c4)CC[C@@H](N4C6COCC4C6)CC5)cc23)cc1` [Example 21, 2-Methyl-2-[2-[4-[5-[(7S)-7-(3-oxa-6-azabicyclo[3.1.1]heptan-6-yl)-6,7,8,9-tetrahydro-5H-benzo[7]annulen-3-yl]-1H-pyrrolo[2,3-b]pyridin-3-yl]phenyl]pyridin-3-yl]propanenitrile], 100 to 1000 nM; under `Cc1cccc(-c2ccc(-c3n[nH]c4ncc(-c5ccc6c(c5)CC[C@@H](N5C7COCC5C7)CC6)cc34)cc2)n1` [Example 116, 6-[(7S)-2-{3-[4-(6-Methylpyridin-2-yl)phenyl]-1H-pyrazolo[3,4-b]pyridin-5-yl}-6,7,8,9-tetrahydro-5H-benzo[7]annulen-7-yl]-3-oxa-6-azabicyclo[3.1.1]heptane], 100 to 1000 nM.
Under `Cc1cccnc1-c1ccc(-c2c[nH]c3ncc(-c4ccc5c(c4)CC[C@@H](N4C[C@@H]6C[C@H]4CO6)CC5)cc23)cc1` [Example 187, (4S)-5-[(7S)-2-{3-[4-(3-Methylpyridin-2-yl)phenyl]-1H-pyrrolo[2,3-b]pyridin-5-yl}-6,7,8,9-tetrahydro-5H-benzo[7]annulen-7-yl]-2-oxa-5-azabicyclo[2.2.1]heptane] stands 100 to 1000 nM; under `C[C@@H]1CCCN1[C@@]1(C)CCc2ccc(-c3cnc4[nH]nc(-c5ccc(-c6ncnn6C)cc5)c4c3)cc2CC1` [Example 112, 1-Methyl-5-(4-{5-[(7S)-7-methyl-7-[(2R)-2-methylpyrrolidin-1-yl]-6,7,8,9-tetrahydro-5H-benzo[7]annulen-2-yl]-1H-pyrazolo[3,4-b]pyridin-3-yl}phenyl)-1H-1,2,4-triazole], under 100 nM; under `CN(C)C(=O)c1cccnc1-c1ccc(-c2c[nH]c3ncc(-c4ccc5c(c4)CC[C@@H](N4C6COCC4C6)CC5)cc23)cc1` [Example 165, N,N-Dimethyl-2-(4-{5-[(7S)-7-{3-oxa-6-azabicyclo[3.1.1]heptan-6-yl}-6,7,8,9-tetrahydro-5H-benzo[7]annulen-2-yl]-1H-pyrrolo[2,3-b]pyridin-3-yl}phenyl)pyridine-3-carboxamide], 100 to 1000 nM.
In the case of `c1ccc(-c2ccc(-c3c[nH]c4ncc(-c5ccc6c(c5)CC[C@@H](N5C7COCC5C7)CC6)cc34)cc2)nc1` [Example 155, 6-[(7S)-2-{3-[4-(Pyridin-2-yl)phenyl]-1H-pyrrolo[2,3-b]pyridin-5-yl}-6,7,8,9-tetrahydro-5H-benzo[7]annulen-7-yl]-3-oxa-6-azabicyclo[3.1.1]heptane], the half-inhibitory concentration (IC50) was over 1000 nM.
The same measure for `Cc1cccnc1-c1ccc(-c2n[nH]c3ncc(-c4ccc5c(c4)CC[C@@](C)(N4CCC[C@H]4C)CC5)cc23)nc1` [Example 105, 3-Methyl-6′-{5-[(7S)-7-methyl-7-[(2R)-2-methylpyrrolidin-1-yl]-6,7,8,9-tetrahydro-5H-benzo[7]annulen-2-yl]-1H-pyrazolo[3,4-b]pyridin-3-yl}-2,3′-bipyridine]: under 100 nM; for `O=C1CCCN1c1cccnc1-c1ccc(-c2n[nH]c3ncc(-c4ccc5c(c4)CC[C@@H](N4C6COCC4C6)CC5)cc23)cc1` [Example 177, 1-[2-(4-{5-[(7S)-7-{3-Oxa-6-azabicyclo[3.1.1]heptan-6-yl}-6,7,8,9-tetrahydro-5H-benzo[7]annulen-2-yl]-1H-pyrazolo[3,4-b]pyridin-3-yl}phenyl)pyridin-3-yl]pyrrolidin-2-one]: 100 to 1000 nM; for `Cc1ccnc(-c2ccc(-c3n[nH]c4ncc(-c5ccc6c(c5)CC[C@@H](N5C7COCC5C7)CC6)cc34)cc2)c1C` [Example 118, 6-[(7S)-2-{3-[4-(3,4-Dimethylpyridin-2-yl)phenyl]-1H-pyrazolo[3,4-b]pyridin-5-yl}-6,7,8,9-tetrahydro-5H-benzo[7]annulen-7-yl]-3-oxa-6-azabicyclo[3.1.1]heptane]: 100 to 1000 nM.
Under `CC(C)(O)c1ccccc1-c1ccc(-c2n[nH]c3ncc(-c4ccc5c(c4)CC[C@@H](N4C6COCC4C6)CC5)cc23)cn1` [Example 113, 2-[2-(5-{5-[(7S)-7-{3-Oxa-6-azabicyclo[3.1.1]heptan-6-yl}-6,7,8,9-tetrahydro-5H-benzo[7]annulen-2-yl]-1H-pyrazolo[3,4-b]pyridin-3-yl}pyridin-2-yl)phenyl]propan-2-ol] stands 100 to 1000 nM.
The same measure for `Cc1cc(F)cnc1-c1ccc(-c2c[nH]c3ncc(-c4ccc5c(c4)CC[C@@H](N4C6COCC4C6)CC5)cc23)cc1` [Example 29, 6-[(7S)-3-[3-[4-(5-Fluoro-3-methylpyridin-2-yl)phenyl]-1H-pyrrolo[2,3-b]pyridin-5-yl]-6,7,8,9-tetrahydro-5H-benzo[7]annulen-7-yl]-3-oxa-6-azabicyclo[3.1.1]heptane]: 100 to 1000 nM; for `CN(C)C(=O)c1cccnc1-c1ccc(-c2n[nH]c3ncc(-c4ccc5c(c4)CC[C@@H](N4C6COCC4C6)CC5)cc23)cc1` [Example 167, N,N-Dimethyl-2-(4-{5-[(7S)-7-{3-oxa-6-azabicyclo[3.1.1]heptan-6-yl}-6,7,8,9-tetrahydro-5H-benzo[7]annulen-2-yl]-1H-pyrazolo[3,4-b]pyridin-3-yl}phenyl)pyridine-3-carboxamide]: 100 to 1000 nM.
For `Cc1nc(-c2ccc(-c3n[nH]c4ncc(-c5ccc6c(c5)CC[C@@H](N5C7COCC5C7)CC6)cc34)cc2)n(C)n1` [Example 23, 6-[(7S)-2-{3-[4-(1,3-Dimethyl-1H-1,2,4-triazol-5-yl)phenyl]-1H-pyrazolo[3,4-b]pyridin-5-yl}-6,7,8,9-tetrahydro-5H-benzo[7]annulen-7-yl]-3-oxa-6-azabicyclo[3.1.1]heptane], the IC50 was 100 to 1000 nM.
Under `Cn1ncnc1-c1ccc(-c2n[nH]c3ncc(-c4ccc5c(c4)CC[C@@H](N4C6COCC4C6)CC5)cc23)cc1` [Example 110, 6-[(7S)-2-{3-[4-(1-Methyl-1H-1,2,4-triazol-5-yl)phenyl]-2H-pyrazolo[3,4-b]pyridin-5-yl}-6,7,8,9-tetrahydro-5H-benzo[7]annulen-7-yl]-3-oxa-6-azabicyclo[3.1.1]heptane] stands 100 to 1000 nM.
